From patent publication US12478624B2, “Heterocyclic derivatives, pharmaceutical compositions and their use in the treatment or amelioration of cancer” (Tolremo Therapeutics AG, priority 2019, dated 2025) come the findings set out here.

The test system of one test is A375 cells. Description: Assay 1: A375 cells treated with S1152, S1008 and compound, immunofluorescence (sc-365823) signal. As to conditions: 1 μM S1152 + 0.5 μM S1008, one day. It counts as cell-based. An outline of the steps: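 A375 cells treated one day with 1 μM S1152, 0.5 μM S1008 and compound dose ranges in DMEM/10% FCS, then fixed, permeabilised and immunostained. Green signal normalised to nuclear counterstain (ethidium-type or DAPI), log ratio fitted by four-parameter regression for EC50.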

For a further test, the target named is T1, CBP Bromodomain (Homo sapiens, UniProt Q92793).
T1 construct: purchased Cayman chemicals 600850
Description: Assay 3: CBP bromodomain binding assay (TR-FRET). The procedure:
Assay 3 CBP Bromodomain Binding Assay (TR-FRET)
Compounds solutions of 10 mM in DMSO were pre-diluted in DSMO to 25× stock solutions in DMSO. These were then diluted down to 4× in assay buffer. A dilution series in assay buffer was performed keeping the DMSO concentration stable. 5 μl compound in assay buffer was transferred into the assay plate (provided by assay kit) and the TR-FRET assay Cayman chemicals; 600850) was performed using the manufactor's instructions. After 1 hour incubation at room temperature in the darks, assay plates were read in a Tecan M1000 plate reader or a Tecan Spaks reader using the TR-FRET mode (top read; excitation 340 nm bandwidth […]; emission 620 nm bandwidth […]; gain optimal determined for the first well, number of flashes: 5; flash frequency 100 Hz; integration time: 500 μs, lag time: 100 μs, room temperature). The TR-FRET ratio was calculated by deviding 670 nm emission by 620 nm emission. Values were log transformed and non-linear regression with variable slope (4 parameters) was used to fit values to a dose-response curve to evaluate EC50 values.

The subject of the next test is OPM-2. Description: Assay 2: multiple myeloma cellular efficacy, PrestoBlue cell proliferation/survival. It counts as cell-based. The note with it: Homo sapiens, 96 h, OPM-2 cells, 4 days. An outline of the steps: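 Cells seeded at 10000/well and exposed to a compound dose range or vehicle for 4 days, then stained with PrestoBlue for 2 h at 37 °C. Fluorescence was background-subtracted and normalized to vehicle; EC50 came from a four-parameter variable-slope fit against log concentration.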

pEC50: −log10 of the molar value.

T1 sequence (Q92793 1085-1192 limits assumed): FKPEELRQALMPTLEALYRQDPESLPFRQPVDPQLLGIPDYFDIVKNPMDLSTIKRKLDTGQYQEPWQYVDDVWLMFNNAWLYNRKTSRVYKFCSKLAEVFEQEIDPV

As to `CC(=O)N1C[C@H](c2nc(Nc3cc(F)c4cn[nH]c4c3)cc(-c3cccnc3)n2)CC[C@@H]1C` [Compound 00040, 1-((2S,5R)-5-(4-((4-fluoro-1H-indazol-6-yl)amino)-6-(pyridin-3-yl)pyrimidin-2-yl)-2-methylpiperidin-1-yl)ethan-1-one], the pEC50 in the test with A375 cells and at CBP Bromodomain was more than 6.70 each time.
On to `CC(=O)N1C[C@H](c2nc(Nc3cccc4[nH]ncc34)cc(-c3cccnc3)n2)CC[C@@H]1C` [Compound 00042, 1-((2S,5R)-5-(4-((1H-indazol-4-yl)amino)-6-(pyridin-3-yl)pyrimidin-2-yl)-2-methylpiperidin-1-yl)ethan-1-one], for which the pEC50 in the test with A375 cells was more than 6.70; at CBP Bromodomain, 6.00 to 6.70.
Taken in the same sequence, the figures for `CC(=O)N1C[C@H](c2nc(Nc3ccc4[nH]ncc4c3)cc(-c3cccnc3)n2)CC[C@@H]1C` [Compound 00030, 1-((2S,5R)-5-(4-((1H-indazol-5-yl)amino)-6-(pyridin-3-yl)pyrimidin-2-yl)-2-methylpiperidin-1-yl)ethan-1-one] were more than 6.70 and 6.00 to 6.70.
On to `CC(=O)N1C[C@H](c2nc(Nc3cc(F)cc(C(=O)N(C)C)c3)cc(-c3cccnc3)n2)CC[C@@H]1C` [Compound 00038, 3-((2-((3R,6S)-1-acetyl-6-methylpiperidin-3-yl)-6-(pyridin3-yl)pyrimidin-4-yl)amino)-5-fluoro-N,N-dimethylbenzamide], for which the pEC50 in the test on A375 cells and on CBP Bromodomain was 6.00 to 6.70 in each case.
For the molecule `CC(=O)N1C[C@H](c2nc(Nc3cncc(C)c3)cc(-c3cnccn3)n2)CC[C@@H]1C` [Compound 00001, 1-((2S,5R)-2-methyl-5-(4-((5-methylpyridin-3-yl)amino)-6-(pyrazin-2-yl)pyrimidin-2-yl)piperidin-1-yl)ethan-1-one], the pEC50 with A375 cells and on CBP Bromodomain was more than 6.70 each time.
Take `CC(=O)N1C[C@H](c2nc(Nc3ccncc3)cc(-c3cccnc3)n2)CC[C@@H]1C` (racemic) [Compound 00101, (+/−)-c/s-1-(2-methyl-5-(4-(pyridin-3-yl)-6-(pyridin-4-ylamino)pyrimidin-2-yl)piperidin-1-yl)ethan-1-one]: the pEC50 with A375 cells and at CBP Bromodomain was 6.00 to 6.70 throughout.
As for `CC(=O)N1C[C@H](c2nc(Nc3ccc4nccn4c3)cc(-c3cccnc3)n2)CC[C@@H]1C` [Compound 00013, 1-((2S,5R)-5-(4-(imidazo[1,2-a]pyridin-6-ylamino)-6-(pyridin-3-yl)pyrimidin-2-yl)-2-methylpiperidin-1-yl)ethan-1-one], the pEC50 was 5.00 to 6.00 with A375 cells and 6.00 to 6.70 at CBP Bromodomain.
As for `CC(=O)N1C[C@H](c2nc(Nc3cc(F)cc(-c4cnoc4)c3)cc(-c3cccnc3)n2)CC[C@@H]1C` [Compound 00046, 1-((2S,5R)-5-(4-((3-fluoro-5-(isoxazol-4-yl)phenyl)amino)-6-(pyridin-3-yl)pyrimidin-2-yl)-2-methylpiperidin-1-yl)ethan-1-one], the pEC50 in the test with A375 cells and at CBP Bromodomain was more than 6.70 in each case.
In the case of `C[C@H]1CC[C@@H](c2nc(Nc3cccc(F)c3)cc(-c3cccnc3)n2)CN1C(N)=O` [Compound 00165, (2S,5R)-5-(4-((3-fluorophenyl)amino)-6-(pyridin-3-yl)pyrimidin-2-yl)-2-methylpiperidine-1-carboxamide], the pEC50 in the test with A375 cells and on CBP Bromodomain was 5.00 to 6.00 in each case.
With `CC(=O)N1C[C@H](c2nc(Nc3cc(-c4cnn(C)c4)cc(C(F)F)c3)cc(-c3cnccn3)n2)CC[C@@H]1C` [Compound 00055, 1-((2S,5R)-5-(4-((3-(difluoromethyl)-5-(1-methyl-1Hpyrazol-4-yl)phenyl)amino)-6-(pyrazin-2-yl)pyrimidin-2-yl)-2-methylpiperidin-1-yl)ethan-1-one], the pEC50 in the test with A375 cells and with OPM-2 was more than 6.70 each time.
For the molecule `CC(=O)N1C[C@H](c2nc(Nc3cc(C)nc(C)c3)cc(-c3cccnc3)n2)CC[C@@H]1C` [Compound 00138, 1-((2S,5R)-5-(4-((2,6-dimethylpyridin-4-yl)amino)-6-(pyridin-3-yl)pyrimidin-2-yl)-2-methylpiperidin-1-yl)ethan-1-one], the pEC50 in the test with A375 cells was more than 6.70; with OPM-2 it was 6.00 to 6.70.
With `CC(=O)N1C[C@H](c2nc(Nc3ccnc(C)c3)cc(-c3cnccn3)n2)CC[C@@H]1C` [Compound 00126, 1-((2S,5R)-2-methyl-5-(4-((2-methylpyridin-4-yl)amino)-6-(pyrazin-2-yl)pyrimidin-2-yl)piperidin-1-yl)ethan-1-one], the pEC50 at CBP Bromodomain was more than 6.70.
For the molecule `CC(=O)N1C[C@H](c2nc(Nc3cc(C)ncn3)cc(-c3cnccn3)n2)CC[C@@H]1C` [Compound 00151, 1-((2S,5R)-2-methyl-5-(4-((6-methylpyrimidin-4-yl)amino)-6-(pyrazin-2-yl)pyrimidin-2-yl)piperidin-1-yl)ethan-1-one], the pEC50 in the test with A375 cells and in the test with OPM-2 was 6.00 to 6.70 each time.
As for `CC(=O)N1C[C@H](c2nc(Nc3cccc(N4CCC4=O)c3)cc(-c3cccnc3)n2)CC[C@@H]1C` [Compound 00087, 1-(3-((2-((3R,6S)-1-acetyl-6-methylpiperidin-3-yl)-6-(pyridin-3-yl)pyrimidin-4-yl)amino)phenyl)azetidin-2-one], the pEC50 is more than 6.70 in the test with A375 cells and 6.00 to 6.70 in the test with OPM-2.
Taken in the same sequence, the figures for `COCCOc1cncc(-c2cc(Nc3ccnc(F)c3)nc([C@@H]3CC[C@H](C)N(C(C)=O)C3)n2)c1` [Compound 00119, 1-((2S,5R)-5-(4-((2-fluoropyridin-4-yl)amino)-6-(5-(2-methoxyethoxy)pyridin-3-yl)pyrimidin-2-yl)-2-methylpiperidin-1-yl)ethan-1-one] were more than 6.70 and more than 6.70.
As to `CC(=O)N1C[C@H](c2nc(Nc3cccc(-n4ccc(C)n4)c3)cc(-c3cccnc3)n2)CC[C@@H]1C` [Compound 00077, 1-((2S,5R)-2-methyl-5-(4-((3-(3-methyl-1H-pyrazol-1-yl)phenyl)amino)-6-(pyridin-3-yl)pyrimidin-2-yl)piperidin-1-yl)ethan-1-one], the pEC50 in the test on A375 cells was more than 6.70; in the test with OPM-2 it was 6.00 to 6.70.
The corresponding values for `CC(=O)N1C[C@H](c2nc(Nc3cccc(-n4cncn4)c3)cc(-c3cccnc3)n2)CC[C@@H]1C` [Compound 00078, 1-((2S,5R)-5-(4-((3-(1H-1,2,4-triazol-1-yl)phenyl)amino)-6-(pyridin-3-yl)pyrimidin-2-yl)-2-methylpiperidin-1-yl)ethan-1-one] are more than 6.70 and more than 6.70.
As to `CC(=O)N1C[C@H](c2nc(Nc3ccnc(C)c3)cc(-c3cccnc3)n2)CC[C@@H]1C` [Compound 00095, 1-((2S,5R)-2-methyl-5-(4-((2-methylpyridin-4-yl)amino)-6-(pyridin-3-yl)pyrimidin-2-yl)piperidin-1-yl)ethan-1-one], the negative logarithm of the EC50 (pEC50) in the test on A375 cells and in the test with OPM-2 was more than 6.70 in each case.
As for `CC(=O)N1C[C@H](c2nc(Nc3cccc4nn(C)cc34)cc(-c3cnccn3)n2)CC[C@@H]1C` [Compound 00050, 1-((2S,5R)-2-methyl-5-(4-((2-methyl-2/−/−indazol-4-yl)amino)-6-(pyrazin-2-yl)pyrimidin-2-yl)piperidin-1-yl)ethan-1-one], the pEC50 in the test on A375 cells was more than 6.70; in the test on OPM-2, 6.00 to 6.70.
`CC(=O)N1C[C@H](c2nc(Nc3ccccc3)cc(-n3cnc(C)c3)n2)CC[C@@H]1C` [Compound 00163, 1-((2S,5R)-2-methyl-5-(4-(4-methyl-1H-imidazol-1-yl)-6-(phenylamino)pyrimidin-2-yl)piperidin-1-yl)ethan-1-one]: the pEC50 with A375 cells and at CBP Bromodomain was 5.00 to 6.00 throughout.
With `CC(=O)N1C[C@H](c2nc(Nc3cc(F)cc(-c4cnn(C)c4)c3)cc(-c3cccnc3)n2)CC[C@@H]1C` [Compound 00043, 1-((2S,5R)-5-(4-((3-fluoro-5-(1-methyl-1H-pyrazol-4-yl)phenyl)amino)-6-(pyridin-3-yl)pyrimidin-2-yl)-2-methylpiperidin-1-yl)ethan-1-one], the pEC50 with A375 cells and on CBP Bromodomain was more than 6.70 in each case.
On to `CC(=O)N1C[C@H](c2nc(-c3cnccn3)cc(N(C)c3ccnc(C)c3)n2)CC[C@@H]1C` [Compound 00167, 1-((2S,5R)-2-methyl-5-(4-(methyl(2-methylpyridin-4-yl)amino)-6-(pyrazin-2-yl)pyrimidin-2-yl)piperidin-1-yl)ethan-1-one], for which the pEC50 with A375 cells is 6.00 to 6.70; in the test on OPM-2 it was 5.00 to 6.00.
Regarding `CC(=O)N1C[C@H](c2nc(Nc3cccc(-c4nnn(C)n4)c3)cc(-c3cccnc3)n2)CC[C@@H]1C` [Compound 00062, 1-((2S,5R)-2-methyl-5-(4-((3-(2-methyl-2H-tetrazol-5-yl)phenyl)amino)-6-(pyridin-3-yl)pyrimidin-2-yl)piperidin-1-yl)ethan-1-one], the pEC50 with A375 cells and with OPM-2 was more than 6.70 each time.
